Test system: FKBP-AGT fusion protein (SNAP-FKBP)
Test: Reactivity with FKBP-AGT fusion protein (protein trimer formation, SDS-PAGE/coomassie)
Format: biochemical
Conditions: in vitro, 4 h incubation at rt, SDS-PAGE with coomassie staining
Description: Determination of the Reactivity of Compound (FIG. 89), (FIG. 90), (FIG. 91), (FIG. 92) and (FIG. 96) with FKBP-AGT Fusion Protein 1 μL of a 591 μM solution of FKBP protein fused to a variant of AGT available from Covalys as […] and 1 μL of a 100 μM solution of compound (FIG. 89), (FIG. 90), (FIG. 91), (FIG. 92) or (FIG. 96) are added to 8 μL of a solution of 50 mM Tris-HCl pH 7.5; 100 mM NaCl; 0.1% Tween20TM; 1 mM DTT. Following a 4 h incubation at rt, 15 μL of a solution of 100 mM Tris-HCl pH 6.8; 2% SDS; 35% glycerol; 10 mM EDTA; 20 mM DTT is added. Then the mixture is boiled for 5 min at 95° C. After cooling to rt, 25 μL of this solution is loaded on a 4-20% linear gradient SDS-PAGE gel. After electrophoresis, the proteins are coomassie stained in gel to visualize protein trimer.

Sequence of FKBP-AGT fusion protein (SNAP-FKBP) (P16455 1-182 C62A/K125A/A127T/R128A/G131K/G132T/M134L/R135S/C150S/N157G/S159E limits assumed): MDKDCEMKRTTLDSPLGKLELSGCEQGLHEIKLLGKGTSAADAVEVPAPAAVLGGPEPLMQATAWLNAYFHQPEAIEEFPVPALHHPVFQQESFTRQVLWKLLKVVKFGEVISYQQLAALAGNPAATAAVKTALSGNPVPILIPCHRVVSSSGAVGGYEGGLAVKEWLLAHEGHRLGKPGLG

Substance | structural ability to trigger the formation of a protein trimer
N-Tris-{[2-(BG-PEG12-NH)-carbonylethoxy]methyl}-methyl nile red-oxyacetamide [FIG. 91] | confirmed
N-Tris-{[2-(BG-PEG12-NH)-carbonylethoxy]methyl}-methyl 5-maleimidopentanecarboxamide [FIG. 92] | confirmed
N-Tris-{[2-(BG-PEG12-NH)-carbonylethoxy]methyl}-methyl ATTO-495-carboxamide [FIG. 90] | confirmed
N-Tris-{[2-(BG-PEG12-NH)-carbonylethoxy]methyl}methyl 7-(diethylamino)coumarin-3-carboxamide [FIG. 89] | confirmed
N-Tris-{[2-(BG-PEG12-NH)-carbonylethoxy]methyl}-methyl-3-[2-(2-maleimidoethyl)disulfanyl]propanoylamide [FIG. 96] | confirmed
